Source: patent US11780830B2, “Triazolone derivatives or salts thereof and pharmaceutical compositions comprising the same” (YUHAN CORPORATION, priority 2018, dated 2023)
Counter-ions that a name gives are not always drawn.

How the values were obtained:
Format in all cases: biochemical
[1] = biological target: T1, recombinant human VAP-1 (Homo sapiens, UniProt Q16853); assay: Activity on recombinant human VAP-1, HRP-coupled Amplex Red hydrogen peroxide assay; details: substrate 1 mM benzylamine; compound incubated with enzyme at 37° C. for 30 minutes; pH 7.4; read-out: Inhibitory Activity (IC50, nM) human VAP-1
T1 construct: purchased R&D systems
T1 sequence (Q16853 1-763): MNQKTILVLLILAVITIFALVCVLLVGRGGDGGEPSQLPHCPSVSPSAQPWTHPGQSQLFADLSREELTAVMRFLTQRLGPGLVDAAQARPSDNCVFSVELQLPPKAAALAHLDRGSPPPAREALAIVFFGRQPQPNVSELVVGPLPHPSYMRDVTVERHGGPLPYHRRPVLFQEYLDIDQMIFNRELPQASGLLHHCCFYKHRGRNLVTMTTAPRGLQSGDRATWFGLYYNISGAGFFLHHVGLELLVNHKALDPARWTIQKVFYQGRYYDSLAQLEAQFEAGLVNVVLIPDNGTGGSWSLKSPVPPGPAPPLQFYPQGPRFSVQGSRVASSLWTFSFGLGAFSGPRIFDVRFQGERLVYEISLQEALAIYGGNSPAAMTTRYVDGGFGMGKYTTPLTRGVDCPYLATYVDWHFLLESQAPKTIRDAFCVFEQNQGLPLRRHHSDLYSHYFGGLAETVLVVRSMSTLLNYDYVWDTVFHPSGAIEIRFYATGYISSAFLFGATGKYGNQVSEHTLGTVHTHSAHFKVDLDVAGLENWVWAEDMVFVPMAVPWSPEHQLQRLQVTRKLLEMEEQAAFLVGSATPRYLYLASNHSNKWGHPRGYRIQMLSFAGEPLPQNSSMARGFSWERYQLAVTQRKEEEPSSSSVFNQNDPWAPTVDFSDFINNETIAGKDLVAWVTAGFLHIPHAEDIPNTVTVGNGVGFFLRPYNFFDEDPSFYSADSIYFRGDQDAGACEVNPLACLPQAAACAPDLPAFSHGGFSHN
Experimental: (§1) The compounds according to the present technology were evaluated in terms of activity on recombinant human VAP-1 (R&D systems) by measuring the level of hydrogen peroxide in horseradish peroxidase (HRP)-coupled reaction using Amplex Red Hydrogen Peroxide Assay Kit (Molecular Probes, Invitrogen, USA). The experiment was carried out at room temperature using benzylamine as a substrate. In the HRP-coupled reaction, hydrogen peroxide oxidation of 10-acetyl-3,7-dihydroxyphenoxazine (Amplex Red reagent) produces resorufin, which is a highly fluorescent compound. Briefly, the test compound was dissolved in dimethyl sulfoxide (DMSO) at a concentration of 20 mM. The dose-response assessment was made by 1:3 serial dilution in DMSO, thereby creating an 8 point curve. The concentration of the upper part was controlled according to the efficacy of the compounds, followed by dilution with a reaction buffer solution to obtain a final DMSO concentration less than 1%. To each well of a 96 black well plate, human VAP-1 purified in 50 mM sodium phosphate buffer solution (pH7.4) was added. The test compounds dissolved in DMSO were incubated with the human VAP-1 enzymes at 37° C. for 30 minutes. After 30-minute incubation, each well is added with a reaction mixture containing 200 uM Amplex Red reagent prepared from 50 mM sodium phosphate buffer solution (pH 7.4), 1 mM benzylamine, and 1 U/mL HRP. Fluorescence intensity was measured at several time points during 1-2 hours using a microplate reader (Flexstation3, Molecular Devices) under the wavelength condition exciting at 544 nm and reading the emission at 590 nm. The inhibitory effect of the compounds was measured as a decrease (%) in the signal rate as compared to the control group without any inhibitor (only diluted DMSO). Data was fixed to a logistic model with four variables and IC50 value was calculated using GraphPad Prism program.

[2] = biological target: T2, recombinant human MAO-A (monoamine oxidase-A) (Homo sapiens, UniProt P21397); assay: Activity on recombinant human MAO-A, method similar to the VAP-1 assay; details: substrate 0.5 mM tyramine; read-out: Inhibitory Activity (IC50, nM) MAO-A
T2 construct: purchased Sigma-Aldrich
T2 sequence (P21397 1-527): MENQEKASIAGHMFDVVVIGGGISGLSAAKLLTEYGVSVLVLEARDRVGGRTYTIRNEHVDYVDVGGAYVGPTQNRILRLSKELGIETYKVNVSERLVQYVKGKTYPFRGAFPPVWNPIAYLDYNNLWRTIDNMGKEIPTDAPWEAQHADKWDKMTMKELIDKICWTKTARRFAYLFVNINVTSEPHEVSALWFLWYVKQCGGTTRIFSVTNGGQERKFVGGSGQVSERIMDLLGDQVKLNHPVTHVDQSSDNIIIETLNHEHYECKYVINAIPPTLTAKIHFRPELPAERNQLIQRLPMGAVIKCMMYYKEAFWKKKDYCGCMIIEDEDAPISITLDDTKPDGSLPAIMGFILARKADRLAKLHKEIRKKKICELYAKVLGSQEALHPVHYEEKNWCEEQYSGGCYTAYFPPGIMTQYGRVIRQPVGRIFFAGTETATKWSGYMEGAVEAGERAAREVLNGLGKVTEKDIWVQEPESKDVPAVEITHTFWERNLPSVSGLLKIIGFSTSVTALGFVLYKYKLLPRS
Experimental: as §1
(§2) In addition, the compounds according to the present technology were evaluated in terms of activity on a recombinant human MAO-A (monoamine oxidase-A, Sigma-Aldrich) and a recombinant human MAO-B (monoamine oxidase-B, Sigma-Aldrich) by using as substrates, 0.5 mM tyramine and 1 mM benzylamine, respectively, with a method similar to the activity evaluation method for recombinant human VAP-1. The compounds according to the present technology were also evaluated in terms of activity on a recombinant human DAO (diamine oxidase, R&D systems) by using as a substrate 1 mM putrescine with a method similar to the activity evaluation method for recombinant human VAP-1.

[3] = biological target: T3, recombinant human MAO-B (monoamine oxidase-B) (Homo sapiens, UniProt P27338); assay: Activity on recombinant human MAO-B, method similar to the VAP-1 assay; details: substrate 1 mM benzylamine; read-out: Inhibitory Activity (IC50, nM) MAO-B
T3 construct: purchased Sigma-Aldrich
T3 sequence (P27338 1-520): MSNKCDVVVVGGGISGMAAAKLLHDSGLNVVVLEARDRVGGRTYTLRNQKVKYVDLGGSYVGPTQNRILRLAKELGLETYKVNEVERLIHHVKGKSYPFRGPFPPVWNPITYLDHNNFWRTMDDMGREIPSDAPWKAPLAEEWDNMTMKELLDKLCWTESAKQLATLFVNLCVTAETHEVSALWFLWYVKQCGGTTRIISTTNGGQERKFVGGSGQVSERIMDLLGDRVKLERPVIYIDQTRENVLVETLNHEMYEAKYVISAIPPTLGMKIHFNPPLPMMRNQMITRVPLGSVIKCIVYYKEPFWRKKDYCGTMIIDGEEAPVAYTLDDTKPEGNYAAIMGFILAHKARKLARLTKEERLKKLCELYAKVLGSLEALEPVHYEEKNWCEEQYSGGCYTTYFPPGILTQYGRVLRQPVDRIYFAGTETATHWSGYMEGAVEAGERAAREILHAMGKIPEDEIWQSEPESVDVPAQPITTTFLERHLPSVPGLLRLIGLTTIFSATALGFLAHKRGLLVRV
Experimental: as §1, §2

[4] = biological target: T4, recombinant human DAO (diamine oxidase) (Homo sapiens, UniProt P19801); assay: Activity on recombinant human DAO, method similar to the VAP-1 assay; details: substrate 1 mM putrescine; read-out: Inhibitory Activity (IC50, nM) DAO
T4 construct: purchased R&D systems
T4 sequence (P19801 20-751): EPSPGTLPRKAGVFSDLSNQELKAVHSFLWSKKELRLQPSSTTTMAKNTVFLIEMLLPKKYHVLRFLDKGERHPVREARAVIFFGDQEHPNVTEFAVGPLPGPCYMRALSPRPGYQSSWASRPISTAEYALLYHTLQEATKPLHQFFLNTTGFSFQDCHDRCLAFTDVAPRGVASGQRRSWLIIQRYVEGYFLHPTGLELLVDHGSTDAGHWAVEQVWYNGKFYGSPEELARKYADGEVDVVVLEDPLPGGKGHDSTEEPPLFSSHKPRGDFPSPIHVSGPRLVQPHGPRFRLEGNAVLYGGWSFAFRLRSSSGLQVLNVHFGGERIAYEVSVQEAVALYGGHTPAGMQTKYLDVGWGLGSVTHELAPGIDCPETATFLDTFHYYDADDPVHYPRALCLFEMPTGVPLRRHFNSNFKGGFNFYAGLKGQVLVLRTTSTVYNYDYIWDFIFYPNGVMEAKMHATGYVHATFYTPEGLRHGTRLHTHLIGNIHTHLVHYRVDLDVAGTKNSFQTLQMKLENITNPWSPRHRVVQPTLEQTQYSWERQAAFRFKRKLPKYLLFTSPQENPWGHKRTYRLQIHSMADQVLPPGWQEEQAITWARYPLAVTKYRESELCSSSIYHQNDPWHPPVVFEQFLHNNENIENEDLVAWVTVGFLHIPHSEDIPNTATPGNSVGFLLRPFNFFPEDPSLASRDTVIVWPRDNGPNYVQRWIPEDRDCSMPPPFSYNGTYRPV
Experimental: as §1, §2

Compound	IC50 [1] [nM]	IC50 [2] [nM]	IC50 [3] [nM]	IC50 [4] [nM]
CN(C)S(=O)(=O)c1ccc(-c2ccc(Cn3cnn(C/C(=C/F)CN)c3=O)s2)cc1 [Example 9, 4-[5-(1-[(2E)-2-(aminomethyl)-3-fluoroprop-2-en-1-yl]-5-oxo-1,5-dihydro-4H-1,2,4-triazol-4-ylmethyl)thiophen-2-yl]-N,N-dimethylbenzenesulfonamide hydrochloride]	1.5	> 100000	1600	170
COC(=O)c1ccc(-c2ccc(Cn3cnn(C/C(=C/F)CN)c3=O)s2)cc1F [Example 12, methyl 4-[5-(1-[(2E)-2-(aminomethyl)-3-fluoroprop-2-en-1-yl]-5-oxo-1,5-dihydro-4H-1,2,4-triazol-4-ylmethyl)thiophen-2-yl]-2-fluorobenzoate hydrochloride]	1.8	> 100000	110	200
COC(=O)c1cc(F)cc(-c2ccc(Cn3cnn(C/C(=C/F)CN)c3=O)s2)c1 [Example 13, methyl 3-[5-(1-[(2E)-2-(aminomethyl)-3-fluoroprop-2-en-1-yl]-5-oxo-1,5-dihydro-4H-1,2,4-triazol-4-ylmethyl)thiophen-2-yl]-5-fluorobenzoate hydrochloride]	0.8	> 100000	260	320
NC/C(=C\F)Cn1ncn(Cc2ccc(-c3ccc(F)c(F)c3)s2)c1=O [Example 14, 2-[(2E)-2-(aminomethyl)-3-fluoroprop-2-en-1-yl]-4-[5-(3,4-difluorophenyl)thiophen-2-yl]methyl-2,4-dihydro-3H-1,2,4-triazol-3-one hydrochloride]	6.5	> 100000	< 100	2400
COc1cc(-c2ccc(Cn3cnn(C/C(=C/F)CN)c3=O)s2)cc(OC)c1OC [Example 17, 2-[(2E)-2-(aminomethyl)-3-fluoroprop-2-en-1-yl]-4-[5-(3,4,5-trimethoxyphenyl)thiophen-2-yl]methyl-2,4-dihydro-3H-1,2,4-triazol-3-one hydrochloride]	1.2	> 100000	1000	620

Other lines, results leading:

IC50 [1] [nM]	IC50 [2] [nM]	IC50 [3] [nM]	IC50 [4] [nM]	Compound
1.5	> 100000	77	500	COC(=O)c1ccc(-c2ccc(Cn3cnn(C/C(=C/F)CN)c3=O)s2)cc1 [Example 10, methyl 4-[5-(1-[(2E)-2-(aminomethyl)-3-fluoroprop-2-en-1-yl]-5-oxo-1,5-dihydro-4H-1,2,4-triazol-4-ylmethyl)thiophen-2-yl]benzoate hydrochloride]
1.8	> 100000	35	1100	COC(=O)c1cccc(-c2ccc(Cn3cnn(C/C(=C/F)CN)c3=O)s2)c1 [Example 11, methyl 3-[5-(1-[(2E)-2-(aminomethyl)-3-fluoroprop-2-en-1-yl]-5-oxo-1,5-dihydro-4H-1,2,4-triazol-4-ylmethyl)thiophen-2-yl]benzoate hydrochloride]
0.9	> 100000	5	670	NC/C(=C\F)Cn1ncn(Cc2ccc(-c3ccc(F)c(C(F)(F)F)c3)s2)c1=O [Example 15, 2-[(2E)-2-(aminomethyl)-3-fluoroprop-2-en-1-yl]-4-(5-[4-fluoro-3-(trifluoromethyl)phenyl]thiophen-2-ylmethyl)-2,4-dihydro-3H-1,2,4-triazol-3-one hydrochloride]
1.2	> 100000	300	2800	COc1ccc(-c2ccc(Cn3cnn(C/C(=C/F)CN)c3=O)s2)cc1OC [Example 16, 2-[(2E)-2-(aminomethyl)-3-fluoroprop-2-en-1-yl]-4-[5-(3,4-dimethoxyphenyl)thiophen-2-yl]methyl-2,4-dihydro-3H-1,2,4-triazol-3-one hydrochloride]
2.1	13000	220	350	COc1cc(COc2c(C)cc(-c3ccc(Cn4cnn(C/C(=C/F)CN)c4=O)s3)cc2C)cc(OC)c1 [Example 18, 2-[(2E)-2-(aminomethyl)-3-fluoroprop-2-en-1-yl]-4-[(5-4-[(3,5-dimethoxybenzyl)oxy]-3,5-dimethylphenylthiophen-2-yl)methyl]-2,4-dihydro-3H-1,2,4-triazol-3-one hydrochloride]
